The values that follow come from patent US11458123B2 (Arvinas, Inc., priority 2016, dated 2022).

One experiment deals with tau protein. In words: Tau protein in vitro degradation assay (Western blot, Tau-13 antibody). In kind it is cell-based, human. Conditions: SK-N-SH cells; 72 hours of incubation; tested at 300 nM, 100 nM, 33 nM and 11 nM; Western blot, Tau-13 antibody. The procedure: Tau Protein In Vitro Degradation Assay
To determine effect of PROTACs on tau protein degradation SK-N-SH cells were seeded in a 24-well tissue culture-treated plate for at least 18-hours prior to compound addition. Tau PROTACs were evaluated for tau degradation by lysing the cells in lysis buffer with protease inhibitors following a 72-hour incubation with tau PROTACs at 1000 nM, 300 nM and 100 nM for Table 1 and 300 nM, 100 nM, 33 nM and 11 nM for Table 2. Cell lysates were run on standard SDS-PAGE gels, and tau levels were detected by Western blotting using Tau-13 antibody from Abcam (Cambridge, UK) that binds to all forms of human tau.
(In western blotting, separated proteins are transferred to a membrane and probed.)
In the case of `Cn1c2ccncc2c2ccc(-c3ccc(O[C@H]4C[C@H](OCCCCCCOCC5CN(c6ccc7c(c6)C(=O)N(C6CCC(=O)NC6=O)C7=O)C5)C4)nc3)cc21` (stereo partly shown) [Compound 178, 2-(2,6-dioxopiperidin-3-yl)-5-(3-(((6-((1r,3r)-3-((5-(5-methyl-5H-pyrido[4,3-b]indol-7-yl)pyridin-2-yl)oxy)cyclobutoxy)hexyl)oxy)methyl)azetidin-1-yl)isoindoline-1,3-dione], the “Degradation activity (tau protein remaining; highest amount of degradation observed at any dosage)” value is recorded as “A (≤50% tau protein remaining after 72 hours of incubation with the test compound)”.
Regarding `Cn1c2ccncc2c2ccc(-c3ccc(O[C@H]4C[C@H](OCCOCCOCCOC5CN(c6ccc7c(c6)C(=O)N(C6CCC(=O)NC6=O)C7=O)C5)C4)nc3)cc21` (stereo partly shown) [Compound 161, 2-(2,6-dioxopiperidin-3-yl)-5-(3-(2-(2-(2-((1r,3r)-3-((5-(5-methyl-5H-pyrido[4,3-b]indol-7-yl)pyridin-2-yl)oxy)cyclobutoxy)ethoxy)ethoxy)ethoxy)azetidin-1-yl)isoindoline-1,3-dione], the “Degradation activity* (highest amount of degradation observed at any dosage; tau protein remaining)” value is recorded as “C (>80% tau protein remaining after 72 hours of incubation with the test compound)”.
The same measure, in the same setting: the entry for `Cn1c2ccncc2c2ccc(-c3ccc(O[C@H]4C[C@@H](Oc5ccc(CCCCCCOc6ccc7c(c6)C(=O)N(C6CCC(=O)NC6=O)C7=O)cn5)C4)nc3)cc21` (stereo partly shown) [Compound 145, 2-(2,6-dioxopiperidin-3-yl)-5-(6-(6-((1s,3s)-3-(5-(5-methyl-5H-pyrido[4,3-b]indol-7-yl)pyridin-2-yloxy)cyclobutoxy)pyridin-3-yl)hexyloxy)isoindoline-1,3-dione] is “C (>80% tau protein remaining after 72 hours of incubation with the test compound)”; for `O=C1CCC(N2C(=O)c3cccc(NCCOCCOCCOCCOCCOc4ccc(-c5ccc6c(c5)[nH]c5ccncc56)cc4)c3C2=O)C(=O)N1` (stereo not shown) [Compound 86, 4-((14-(4-(5H-pyrido[4,3-b]indol-7-yl)phenoxy)-3,6,9,12-tetraoxatetradecyl)amino)-2-(2,6-dioxopiperidin-3-yl)isoindoline-1,3-dione] it is “C (>80% tau protein remaining after 72 hours of incubation with the test compound)”.
Consider `O=C1CCC(N2C(=O)c3ccc(N4CC(OCCCOCCCO[C@H]5C[C@H](Oc6ccc(-c7ccc8c(c7)[nH]c7ccncc78)cn6)C5)C4)cc3C2=O)C(=O)N1` (stereo partly shown) [Compound 182, 5-(3-(3-(3-((1r,3r)-3-((5-(5H-pyrido[4,3-b]indol-7-yl)pyridin-2-yl)oxy)cyclobutoxy)propoxy)propoxy)azetidin-1-yl)-2-(2,6-dioxopiperidin-3-yl)isoindoline-1,3-dione], for which the “Degradation activity (tau protein remaining; highest amount of degradation observed at any dosage)” value is given as “A (≤50% tau protein remaining after 72 hours of incubation with the test compound)”.
In the case of `Cn1c2ccncc2c2ccc(-c3ccc(O[C@H]4C[C@H](Oc5ccc(CCCCCCOc6ccc7c(c6)C(=O)N(C6CCC(=O)NC6=O)C7=O)cc5)C4)nc3)cc21` (stereo partly shown) [Compound 147, 2-(2,6-dioxopiperidin-3-yl)-5-((6-(4-((1r,3r)-3-((5-(5-methyl-5H-pyrido[4,3-b]indol-7-yl)pyridin-2-yl)oxy)cyclobutoxy)phenyl)hexyl)oxy)isoindoline-1,3-dione], the “Degradation activity* (highest amount of degradation observed at any dosage; tau protein remaining)” value is recorded as “C (>80% tau protein remaining after 72 hours of incubation with the test compound)”.
On the same count and under the same terms, the same measure for `Cn1c2ccncc2c2ccc(-c3ccc(OCC#CCOCCCCOCCCCOc4ccc5c(c4)C(=O)N(C4CCC(=O)NC4=O)C5=O)nc3)cc21` (stereo not shown) [Compound 90, 2-(2,6-dioxopiperidin-3-yl)-5-(4-(4-((4-((5-(5-methyl-5H-pyrido[4,3-b]indol-7-yl)pyridin-2-yl)oxy)but-2-yn-1-yl)oxy)butoxy)butoxy)isoindoline-1,3-dione]: “A (≤50% tau protein remaining after 72 hours of incubation with the test compound)”; for `Cn1c2ccncc2c2ccc(-c3ccc(OCCCCCOCCCCCN4CC(Oc5ccc6c(c5)C(=O)N(C5CCC(=O)NC5=O)C6=O)C4)nc3)cc21` (stereo not shown) [Compound 80, 2-(2,6-dioxopiperidin-3-yl)-5-((1-(5-((5-((5-(5-methyl-5H-pyrido[4,3-b]indol-7-yl)pyridin-2-yl)oxy)pentyl)oxy)pentyl)azetidin-3-yl)oxy)isoindoline-1,3-dione]: “A (≤50% tau protein remaining after 72 hours of incubation with the test compound)”.
Still for that read-out and setting: the entry for `Cn1c2ccncc2c2ccc(-c3ccc(O[C@H]4C[C@H](OCC5(COCCCOC6CN(c7ccc8c(c7)C(=O)N(C7CCC(=O)NC7=O)C8=O)C6)COC5)C4)nc3)cc21` (stereo partly shown) [Compound 169, 2-(2,6-dioxopiperidin-3-yl)-5-(3-(3-((3-(((1r,3r)-3-((5-(5-methyl-5H-pyrido[4,3-b]indol-7-yl)pyridin-2-yl)oxy)cyclobutoxy)methyl)oxetan-3-yl)methoxy)propoxy)azetidin-1-yl)isoindoline-1,3-dione] is “A (≤50% tau protein remaining after 72 hours of incubation with the test compound)”; for `O=C1CCC(N2C(=O)c3ccc(OCCOCCOCCOCCOCCOc4ccc(-c5ccc6c(c5)[nH]c5ccncc56)cn4)cc3C2=O)C(=O)N1` (stereo not shown) [Compound 51, 5-((14-((5-(5H-pyrido[4,3-b]indol-7-yl)pyridin-2-yl)oxy)-3,6,9,12-tetraoxatetradecyl)oxy)-2-(2,6-dioxopiperidin-3-yl)isoindoline-1,3-dione] it is “A (≤50% tau protein remaining after 72 hours of incubation with the test compound)”.

Staying with this experiment, now noted: SK-N-SH cells; 72 hours of incubation; tested at 1000 nM, 300 nM and 100 nM.
Consider `Cc1ncsc1-c1ccc(CNC(=O)[C@@H]2C[C@@H](O)CN2C(=O)[C@@H](NC(=O)COCCOCCOCCOCCOc2ccc(-c3ccc4c(c3)[nH]c3ccncc34)cn2)C(C)(C)C)cc1` [Compound 6, (2S,4R)-1-((S)-17-(5-(5H-pyrido[4,3-b]indol-7-yl)pyridin-2-yloxy)-2-tert-butyl-4-oxo-6,9,12,15-tetraoxa-3-azaheptadecane)-4-hydroxy-N-(4-(4-methylthiazol-5-yl)benzyl)pyrrolidine-2-carboxamide], for which the “Activity* (highest amount of degradation observed at any dosage, as tau protein remaining)” value was “C (>80% tau protein remaining after 72 hours of incubation with the test compound)”.
In the case of `CN(C)c1ccc(-c2ccc3cc(OCC(O)COCCOCCOCCOCCNc4cccc5c4C(=O)N(C4CCC(=O)NC4=O)C5=O)ccc3n2)cc1` (stereo not shown) [Compound 45, 4-(15-(2-(4-(dimethylamino)phenyl)quinolin-6-yloxy)-14-hydroxy-3,6,9,12-tetraoxapentadecylamino)-2-(2,6-dioxopiperidin-3-yl)isoindoline-1,3-dione], the “Activity* (highest amount of degradation observed at any dosage, as tau protein remaining)” value is reported as “C (>80% tau protein remaining after 72 hours of incubation with the test compound)”.
On the same count and under the same terms, the entry for `Cc1ncsc1-c1ccc(CNC(=O)[C@@H]2C[C@@H](O)CN2C(=O)[C@@H](NC(=O)COCCOCCOCCOc2ccc3nc(-c4ccc(N(C)C)cc4)ccc3c2)C(C)(C)C)cc1` [Compound 29, (2S,4R)-1-((S)-2-tert-butyl-14-(2-(4-(dimethylamino)phenyl)quinolin-6-yloxy)-4-oxo-6,9,12-trioxa-3-azatetradecane)-4-hydroxy-N-(4-(4-methylthiazol-5-yl)benzyl)pyrrolidine-2-carboxamide] is “C (>80% tau protein remaining after 72 hours of incubation with the test compound)”.
